# In publication PMC7065129, “Phospholipase D‐derived phosphatidic acid promotes root hair development under phosphorus deficiency by suppressing vacuolar degradation of PIN‐FORMED2” (The New Phytologist, 2019):
# Target: T1, SNX1 (SORTING NEXIN1; AtSNX1) (Arabidopsis thaliana, UniProt Q9FG38)
# T1 construct: full-length cDNA in pET51b, His-tagged (tag kept), E. coli Rosetta (DE3), Ni-NTA purified
# T1 sequence (Q9FG38 1-402): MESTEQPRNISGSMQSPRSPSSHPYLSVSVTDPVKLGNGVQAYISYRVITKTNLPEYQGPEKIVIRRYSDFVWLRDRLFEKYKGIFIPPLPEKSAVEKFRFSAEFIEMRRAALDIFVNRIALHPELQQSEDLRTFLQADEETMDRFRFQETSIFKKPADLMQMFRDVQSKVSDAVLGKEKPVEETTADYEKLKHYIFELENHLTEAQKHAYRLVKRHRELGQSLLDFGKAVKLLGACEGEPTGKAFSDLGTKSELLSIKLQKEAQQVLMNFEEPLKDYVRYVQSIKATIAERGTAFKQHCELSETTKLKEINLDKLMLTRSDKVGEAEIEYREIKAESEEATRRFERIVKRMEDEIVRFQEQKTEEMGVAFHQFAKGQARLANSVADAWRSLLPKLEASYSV
# Test: liposome co-sedimentation, immunoblot
# Assay type: binding
# Conditions: dioleoyl PC/dioleoyl PA liposomes, pH 7.5, 25 °C; PA (acyl chains not told) also tested by lipid-protein overlay
smiles,measurement,value
CCCCCCCC/C=C\CCCCCCCC(=O)OC[C@H](COP(=O)(O)O)OC(=O)CCCCCCC/C=C\CCCCCCCC [dioleoyl PA],"liposome co-sedimentation, immunoblot",results confirmed the specific SNX1‐PA binding (Fig. 4b)
